This passage reports IC50 and IC90 results from ChEMBL document CHEMBL4483862, “Open-source discovery of chemical leads for next-generation chemoprotective antimalarials” (2018).

Each structure is given as a SMILES string.

The experiment deals with Plasmodium berghei. The experiment is described as follows: Luciferase/luciferin-expressing antifolate-resistant parasites were used to infect a culture of HepG2 cells that were pre-incubated with compounds. Infected hepatocytes emit light due to the luciferase reaction. Assay results are presented as the percent inhibition of light emission compared to control. […]. The class given is functional. To be noted: sporozoite; for IC90: read-out: LUCIFERASE INFECTION ASSAY - IC90.

Setting [1] is: read-out: LUCIFERASE INFECTION ASSAY - IC50.

For the compound `COc1ccc(S(=O)(=O)N2CCSc3cc(Cl)ccc32)cc1`, the IC90 (in general, the point of the concentration-response curve where the effect stands at 90%) came out at 3.18 µM. Moreover, the IC50 (commonly the concentration that gives 50% inhibition) (HEPG2TOX_HILL_SLOPE 2.85, HEPG2TOX_R_SQUARED 0.925, PBLUC_HILL_SLOPE 20.1, PBLUC_R_SQUARED 0.623, read-out: LUCIFERASE INFECTION ASSAY - IC50) is 2.85 µM.
As for `CCCCCCCCc1nnc(NC(=O)c2cnc(C)cn2)s1`, the IC90 came out at 9.2 µM. Besides, the IC50 (PBLUC_HILL_SLOPE 3.30, 10.9, PBLUC_R_SQUARED 0.837, 0.639, read-out: LUCIFERASE INFECTION ASSAY - IC50) was 6.57 µM.
As for `N#CC(C(=O)COC(=O)COc1cc(Cl)c(Cl)cc1Cl)=C1Nc2ccccc2N1`, the IC90 is over 10 µM. Further, under setting [1], the IC50 was over 10 µM.
On to `CCc1c(C(=O)/C=C/c2cccc(C#N)c2)oc2ccccc12`, for which the IC90 turned out to be 9.02 µM. Moreover, the IC50 (FFLUC_HILL_SLOPE 2.17, FFLUC_R_SQUARED 0.174, HEPG2TOX_HILL_SLOPE 14.7, HEPG2TOX_R_SQUARED 0.793, PBLUC_HILL_SLOPE 2.78, PBLUC_R_SQUARED 0.439, read-out: LUCIFERASE INFECTION ASSAY - IC50) came out at 4.09 µM.
`Cc1cccc(C)c1NC(=O)N1[C@@H]2CC[C@@H](C2)[C@H]1c1nc2c(OCCC3CCCCC3)cccc2[nH]1`: the 90% effect concentration (IC90) is over 10 µM. Besides, the IC50 (FFLUC_HILL_SLOPE 3.83, FFLUC_R_SQUARED 0.822, PBLUC_HILL_SLOPE 12.1, PBLUC_R_SQUARED 0.296, read-out: LUCIFERASE INFECTION ASSAY - IC50) worked out at 9.48 µM.
As for `OCc1ccc(-c2cnc3cnc(-c4ccsc4)cn23)cc1`, the IC90 turned out to be 8.46 µM. Also, the IC50 (PBLUC_HILL_SLOPE 3.6, PBLUC_R_SQUARED 0.458, read-out: LUCIFERASE INFECTION ASSAY - IC50) stood at 4.59 µM.
As for `Fc1ccc(/N=c2\scc(-c3ccc4c(c3)OCCO4)n2C2CCCC2)cc1`, the IC90 amounted to 1.58 µM. For the same compound, the IC50 (FFLUC_HILL_SLOPE 15, FFLUC_R_SQUARED 0.34, HEPG2TOX_HILL_SLOPE 7.4, HEPG2TOX_R_SQUARED 0.523, PBLUC_HILL_SLOPE 11.6, PBLUC_R_SQUARED 0.501, read-out: LUCIFERASE INFECTION ASSAY - IC50) was 1.31 µM.
On to `CCc1cc(=O)n2nc(Cc3ccccc3)c(-c3ccccc3)c2[nH]1`, for which the IC90 is over 10 µM. Moreover, the half-maximal inhibitory concentration (IC50) (HEPG2TOX_HILL_SLOPE 8.68, HEPG2TOX_R_SQUARED 0.27, PBLUC_HILL_SLOPE 11.4, PBLUC_R_SQUARED 0.149, read-out: LUCIFERASE INFECTION ASSAY - IC50) was found to be 8.75 µM.
As to `CSc1ncc(C(=O)N2CCN(c3ccnc4cc(Cl)ccc34)CC2)n1-c1ccc(F)cc1`, the IC90 was found to be 9.72 µM. Further, under “PBLUC_HILL_SLOPE 12.3, PBLUC_R_SQUARED 0.334, read-out: LUCIFERASE INFECTION ASSAY - IC50”, the IC50 was found to be 8.13 µM.
Turning to `Cc1ccc(O)c(/C=N/NC(=S)NC(C)(C)C)c1`, the concentration for an effect of 90% (IC90) was over 12.4 µM. For the same compound, under “PBLUC_HILL_SLOPE 24.9, PBLUC_R_SQUARED 0.247, read-out: LUCIFERASE INFECTION ASSAY - IC50”, the IC50 was found to be 11.8 µM.
For the compound `O=C(NCc1sccc1CSc1ccc(Cl)cc1)Nc1cccc(C(F)(F)F)c1`, the IC90 is 5.08 µM. The IC50 (HEPG2TOX_HILL_SLOPE 8.54, HEPG2TOX_R_SQUARED 0.938, PBLUC_HILL_SLOPE 7.51, PBLUC_R_SQUARED 0.41, read-out: LUCIFERASE INFECTION ASSAY - IC50) was found to be 3.79 µM.
For `Cc1cccc(NC2=C(Cl)C(=O)c3ccccc3C2=O)c1`, the IC90 is 1.4 µM. Besides, the IC50 (HEPG2TOX_HILL_SLOPE 3.88, HEPG2TOX_R_SQUARED 0.992, PBLUC_HILL_SLOPE 14.7, PBLUC_R_SQUARED 0.858, read-out: LUCIFERASE INFECTION ASSAY - IC50) turned out to be 1.2 µM.
For `COc1ccccc1-c1nnc(SCc2cc(=O)c(O)co2)n1C`, the IC90 was over 10 µM. Also, the concentration for half-maximal inhibition (IC50) under setting [1] was over 10 µM.
`COc1ccc(CNCCC(c2ccc(F)cc2)c2ccco2)cc1` (centres undefined): the IC90 stood at 1.22 µM. Besides, the IC50 (HEPG2TOX_HILL_SLOPE 73.6, HEPG2TOX_R_SQUARED 0.521, PBLUC_HILL_SLOPE 15.7, PBLUC_R_SQUARED 0.627, read-out: LUCIFERASE INFECTION ASSAY - IC50) was 1.06 µM.
With `Cc1c(S(=O)(=O)c2ccc(Cl)cc2)csc1C(=O)NCc1ccco1`, the IC90 was over 8.34 µM. Also, the IC50 (PBLUC_HILL_SLOPE 1.58, PBLUC_R_SQUARED 0.729, read-out: LUCIFERASE INFECTION ASSAY - IC50) worked out at 2.88 µM.
For the compound `CC(C)Cn1c(-c2ccccc2)nc2c(c(=O)c3ccccc3n2C)c1=O`, the IC90 is over 9.18 µM. Besides, the IC50 (PBLUC_HILL_SLOPE 2.45, PBLUC_R_SQUARED 0.0531, read-out: LUCIFERASE INFECTION ASSAY - IC50) worked out at 6.49 µM.
For the compound `Cc1ccc2c(c1)C1CN(C)CCC1N2C(=O)CCCOc1ccc(Cl)cc1Cl` (centres undefined), the IC90 is over 10 µM. The IC50 under setting [1] is over 10 µM.
For `CC(C)c1ccc(-c2ccc3nnc(-c4ccc(OCCCN(C)C)cc4)n3c2)cc1`, the IC90 was over 10 µM. The IC50 under setting [1] was over 10 µM.
In the case of `CCn1c(NC(=O)c2csc(Br)c2)nc2ccccc21`, the IC90 was over 10 µM. Also, the concentration for half-maximal inhibition (IC50) (PBLUC_HILL_SLOPE 0.956, PBLUC_R_SQUARED 0.162, read-out: LUCIFERASE INFECTION ASSAY - IC50) turned out to be 5.44 µM.
For the compound `O=C(N/N=C/C1=C(N2CCOCC2)C(=C/c2ccc(Cl)cc2Cl)/CC1)c1ccco1`, the IC90 is 6.76 µM. Further, the IC50 (PBLUC_HILL_SLOPE 1.95, PBLUC_R_SQUARED 0.652, read-out: LUCIFERASE INFECTION ASSAY - IC50) amounted to 2.18 µM.
`Cc1cc(-c2ccccc2)[n+]2nc(N)c3ccccc3c2n1`: the IC90 is over 10 µM. The IC50 (HEPG2TOX_HILL_SLOPE 2.74, HEPG2TOX_R_SQUARED 0.909, PBLUC_HILL_SLOPE 12.1, PBLUC_R_SQUARED 0.242, read-out: LUCIFERASE INFECTION ASSAY - IC50) amounted to 9.17 µM.
Regarding `CN(C)C(=O)c1ccc(-c2cnc3cnc(-c4ccc(F)c(Cl)c4)cn23)cc1`, the IC90 was over 8.36 µM. In addition, under setting [1], the IC50 is over 8.36 µM.
Regarding `COc1ccc(-c2csc3ncnc(N4CCN(c5ccccc5[N+](=O)[O-])CC4)c23)cc1`, the IC90 is over 10 µM. The IC50 (HEPG2TOX_HILL_SLOPE 5.61, HEPG2TOX_R_SQUARED 0.324, PBLUC_HILL_SLOPE 1.94, 2.89, PBLUC_R_SQUARED 0.358, 0.293, read-out: LUCIFERASE INFECTION ASSAY - IC50) was found to be 6.64 µM.
Regarding `COc1cc(Br)cc(/C=N/NC(=S)NC(C)(C)C)c1O`, the IC90 was found to be 6.76 µM. The IC50 (PBLUC_HILL_SLOPE 63.8, PBLUC_R_SQUARED 0.286, read-out: LUCIFERASE INFECTION ASSAY - IC50) is 6.53 µM.
Take `Cc1c(C)c(C)c(C(=O)C2CCN(C(=O)c3ccc([N+](=O)[O-])o3)CC2)c(C)c1C`: the IC90 was over 8.28 µM. For the same compound, the IC50 (FFLUC_HILL_SLOPE 1.26, FFLUC_R_SQUARED 0.398, read-out: LUCIFERASE INFECTION ASSAY - IC50) was over 8.28 µM.
As to `CCOC(C(=O)Nc1ccccc1Cc1ccccc1)(c1ccccc1)c1ccccc1`, the IC90 was over 10 µM. The IC50 under setting [1] was over 10 µM.
Take `COc1cc(-c2cnc3cnc(-c4ccccc4Cl)cn23)ccc1O`: the IC90 is over 9.38 µM. For the setting “PBLUC_HILL_SLOPE 17.8, PBLUC_R_SQUARED 0.0398, read-out: LUCIFERASE INFECTION ASSAY - IC50”, the IC50 came to 8.38 µM.
